Test: gradient 5% acetonitrile 3 min, to 50% in 2 min, to 85% in 15 min, held 3 min, 100 µL/min
Details: column: Zorbax Extend-C18 2.1 x 50 mm; eluents: water / acetonitrile, 0.1% formic acid
Method in brief: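 Mixtures of ~100 pure standards were chromatographed on a Zorbax Extend-C18 column (2.1 × 50 mm, 1.8 μm) at 100 μL/min using water and acetonitrile, each with 0.1% formic acid. Detection used a quadrupole time-of-flight mass spectrometer in positive and negative ionization mode, and data collection spanned 3 months. Retention time was obtained from adduct peaks picked computationally and each checked manually.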

Row | SMILES | RP-LC retention time
1 | O=C(CN1C(=O)CSc2ccc(C(=O)N3CCCCC3)cc21)NCCC1=CCCCC1 | 870 s
2 | N#Cc1ccc(NC(=O)C2CCN(S(=O)(=O)c3cc(C(=O)N4CCCC4)cs3)CC2)cc1 | 792 s
3 | Cc1noc(C2(NC(=O)c3ccc(Br)cc3)CCCCC2)n1 | 924 s
4 | COc1cccc(-c2noc(CCn3nc(-c4cccc(Cl)c4)ccc3=O)n2)c1OC | 947 s
5 | Cc1cccc(Cl)c1S(=O)(=O)Nc1ccc2c(c1)CCC(=O)N2C | 788 s
6 | CCc1cc(N2CCN(C(=O)c3ccc4c(c3)OCO4)CC2)nc2nnc(C)n12 | 607 s
7 | CCOc1cccc(CN2C[C@@H]3C(=O)N(CCCN4CCCC4=O)C(=O)[C@@H]3C2)c1 | 617 s
8 | CS(=O)(=O)N1CCCC(C(=O)N(Cc2ccccc2)Cc2ccccc2)C1 (stereo not given) | 886 s
9 | CCOc1ccc(N2C(=O)C3N=NN(Cc4nc(-c5ccc(Cl)cc5)no4)C3C2=O)cc1 (stereo not given) | 722 s
10 | O=C(Nc1ccc2c(c1)OCCO2)c1cccc2c1CCN2C(=O)Nc1ccc(F)cc1 | 909 s
11 | Cc1[nH]c(C)c(S(=O)(=O)N2CCC(C(=O)N3CCc4ccccc43)CC2)c1C(=O)N1CCCCC1 | 778 s
12 | C=CCn1nnc(NCc2ccc(-c3cccc(Cl)c3)o2)n1 | 1050 s
13 | Cc1noc(-c2ccnc(-n3cnc(C(=O)NCc4ccc(Cl)cc4)c3)c2)n1 | 903 s
14 | Cc1ccccc1N1C(=O)CN(S(C)(=O)=O)CC1(C)C(=O)NCc1ccc(Cl)cc1 (stereo not given) | 778 s
15 | CCC(=O)NCC12CCC=C1N(C)C(=O)CC2 (stereo not given) | 616 s
16 | COc1ccc(CN2C(=O)c3ccccc3C2C(=O)NC2CCCC2)c(OC)c1 (stereo not given) | 848 s
17 | CCOc1ccc(-c2nc(CSCC(=O)NCc3cccs3)c(C)o2)cc1 | 1030 s
18 | Cc1cc(=O)n(CC(=O)Nc2ccccc2)c(-c2ccc(Cl)cc2)n1 | 1100 s
19 | Cc1nc2cc(-c3noc(Cc4ccccc4Br)n3)ccc2o1 | 1120 s
20 | CCc1cc(C(=O)N2CCCC2)nc2cc(-c3cccs3)nn12 | 655 s
21 | CSc1ccc(CCNC(=O)CCCN2C(=O)CCn3nc(C)cc32)cc1 | 690 s
22 | Cc1[nH]c2ccccc2c1C(=O)C(=O)Nc1ccccc1 | 816 s
23 | CCC(C)NC(=O)CCc1ccc2nc(-c3ccccc3)[nH]c2c1 (stereo not given) | 621 s

Row | SMILES | RP-LC retention time
24 | COc1ccccc1OCC(=O)Nc1ccc2c(c1)C(=O)Nc1cc(Cl)ccc1O2 | 873 s
25 | COc1ccc(CN2CCc3nc(N4CCN(c5ncccn5)CC4)ncc3C2)cc1 | 584 s
26 | CCc1cc(=O)n(CC(=O)N2CCc3ccccc32)c(N)n1 | 627 s
27 | CCN(Cc1ccccc1)C(=O)c1cn2c(n1)COCC2 | 640 s
28 | O=C(CN1C(=O)CCC1=O)Nc1nnc(-c2ccc(Cl)s2)o1 | 642 s
29 | CCC(=O)N1CCc2cc(N3CC(C(=O)Nc4ccc(C)cc4Cl)CC3=O)ccc21 (stereo not given) | 789 s
30 | CC(C)c1ccc(-n2ccnc(NC(=O)Nc3cccc(F)c3)c2=O)cc1 | 1140 s
31 | O=C(Cn1nc(N2CCOCC2)c2ccccc2c1=O)N1CCN(c2ccccc2)CC1 | 800 s
32 | c1ccc(CCCN2CCN(CCOC(c3ccccc3)c3ccccc3)CC2)cc1 | 874 s
33 | Cc1csc2nc(CSc3nnc(-c4ccccc4F)o3)cc(=O)n12 | 799 s
34 | Cc1ccc(CNC(=O)Cn2c(=O)cc(-c3nc(C(C)C)no3)c3ccccc32)cc1 | 1010 s
35 | Cc1cc(C(=O)Nc2cc(-c3ccco3)nn2CCO)no1 | 725 s
36 | COc1ccc(-c2nc3cccnc3n2C2CCN(C(=O)NC3CCCC3)C2)cc1 (stereo not given) | 879 s
37 | CCN1C(=O)COc2cc(-c3noc(C(=O)NC4CC4)n3)ccc21 | 773 s
38 | CC(C)CN1C(=O)c2cccn2CC1CNC(=O)c1ccco1 (stereo not given) | 672 s
39 | CCn1cc(CCN2CCC(C(=O)Nc3ccc4c(c3)OCCO4)CC2)c2cccnc21 | 626 s
40 | O=C(NC1CC1)c1ccc(N2CCC(NCc3ccc(F)cc3)C2)nc1 (stereo not given) | 553 s
41 | Cc1ccc(N(C)C(=O)c2cc(C)n3nc(-c4ccccn4)cc3n2)cc1 | 763 s
42 | CC(=O)N1CCC2(CC1)Oc1ccccc1C1CC(c3ccccc3)=NN12 (stereo not given) | 953 s
43 | CC(C)c1ccc(OCC(=O)Nc2cnn(C)c(=O)c2N2CCOCC2)cc1 | 952 s
44 | Cc1cc(C)c(NC(=O)C2CCN(S(C)(=O)=O)c3ccccc3O2)c(C)c1 (stereo not given) | 900 s
45 | CCN(CC)CCn1c(NCc2ccccc2OC)nc2ccccc21 | 1130 s
46 | CCOCCCNC(=O)c1ccc(CS(=O)c2ccccc2Cl)o1 (stereo not given) | 704 s

Row | SMILES | RP-LC retention time
47 | Cc1nc(-c2ccc(F)cc2)sc1C(=O)N[C@@H](Cc1c[nH]c2ccccc12)C(=O)O | 838 s
48 | Cc1ncoc1C(=O)N1CCC(c2noc(-c3cnccn3)n2)C1 (stereo not given) | 620 s
49 | CCOc1ccccc1C(=O)n1nc(C)c(S(=O)(=O)N2CCCC2)c1C | 1040 s
50 | Nc1ccccc1NC(=O)c1ccc(CNc2nccc(-c3cccnc3)n2)cc1 | 664 s
51 | COc1ccc(-c2cn3nc(N4CCCC(C(=O)N5CCCC5)C4)sc3n2)cc1 (stereo not given) | 981 s
52 | CSc1cccc(NC(=O)N2CCCC(C)(C(=O)NCc3ccccc3)C2)c1 (stereo not given) | 951 s
53 | COc1ccc(C(=O)N2CCC3(CC2)N=C(c2ccc(Cl)cc2)NO3)cc1OC | 784 s
54 | O=C1N(c2ccc(F)cc2)c2ncccc2S(=O)(=O)N1Cc1ccccc1 | 1020 s
55 | CCc1nc(OCC(=O)Nc2ccccc2C(=O)OC)c2ccccc2n1 | 902 s
56 | Clc1ccc(-c2nc(NCc3cccnc3)c3ccccc3n2)cc1 | 601 s
57 | CCCCC(=O)Nc1cnc(N2CCNCC2)c(C(=O)N2CCCCC2C)c1 (stereo not given) | 619 s
58 | O=C(Cn1nc(Cc2ccncc2)c2ccccc2c1=O)N1CCN(C(=O)c2ccco2)CC1 | 582 s
59 | O=C1CC(c2noc(-c3cc(F)cc(F)c3)n2)CN1c1ccc(F)cc1 (stereo not given) | 944 s
60 | CN(C(=O)Cn1cnc2nc3c(cc2c1=O)CCCC3)c1ccccc1F | 722 s
61 | Cn1c(N2CCCC(C(=O)Nc3nccs3)C2)cc(=O)n(C)c1=O (stereo not given) | 634 s
62 | CC(=O)Nc1nc(-c2ccc3c(c2)NC(=O)CO3)cs1 | 633 s
63 | O=C(NCC1Cn2cccc2C(=O)N1Cc1ccccc1)NC1CCCC1 (stereo not given) | 734 s
64 | CCCC(=O)N1C[C@@H]2CCCN3CCC[C@@H]([C@H]23)[C@H]1CCCC(=O)NCC1CC1 | 587 s
65 | Cn1cc(-c2cc3n(n2)CCC(=O)N3CC(=O)NCCCN2CCOCC2)c2ccccc21 | 603 s
66 | O=C(c1cccc2c1CCN2C(=O)C1CC1)N1CCOCC1 | 645 s
67 | CCCN(CC1CCOC1)C(=O)Nc1ccccc1 (stereo not given) | 575 s
68 | COc1ccc(-c2cc3c(=O)n(Cc4noc(CN5CCCCC5C)n4)ccn3n2)cc1 (stereo not given) | 674 s
69 | CCNC(=O)[C@H]1O[C@@H](n2cnc3c(N)nc(NCCc4ccc(CCC(=O)O)cc4)nc32)C(O)[C@H]1O (stereo not given in full) | 503 s

Row | SMILES | RP-LC retention time
70 | CC(C)NC(=O)c1ccc(Cn2cncn2)cc1 | 597 s
71 | NC(=O)CSc1ccc(-c2ccccn2)nn1 | 554 s
72 | O=C(Nc1ccc(Cl)cc1F)N1CCC(N2CC(F)(F)C[C@H]2COCC2CC2)CC1 | 741 s
73 | CC1=C(c2ccc(F)cc2)S(=O)(=O)N=C1N1CCCN(C(=O)C2CC2)CC1 | 734 s
74 | COc1ccc2c(c1)CCC1C2CC[C@@]2(C)C1CC[C@@H]2NCCCCCCN1C(=O)CCC1=O (stereo not given in full) | 864 s
75 | Cc1ccc(-c2nnc(Cc3nc(-c4ccccc4C)no3)o2)cc1C | 842 s
76 | COc1cc2nc(N3CCCN(C)CC3)nc(NC3CCN(Cc4ccccc4)CC3)c2cc1OC | 609 s
77 | Cc1nc(-c2ccc(C(F)(F)F)cc2)ncc1C(=O)NCc1ccco1 | 1020 s
78 | CNC(=O)CN1c2ccccc2NC2=C(C(=O)CC(C)(C)C2)C1c1ccc(OC)cc1 (stereo not given) | 729 s
79 | O=C1NC2(CCN(C(=O)Nc3ccc4c(c3)OCO4)CC2)N=C1c1ccccc1 | 746 s
80 | O=C(CCN1C(=O)C2CC=CCC2C1=O)N1CCN(c2ccccn2)CC1 (stereo not given) | 558 s
81 | CCOC(=O)c1c(CN2CCOCC2)n(C)c2cc(-c3cccnc3)c3c(c12)CN(C)CO3 | 784 s
82 | COCCNC(=O)NCc1ccc2c(c1)N(C(=O)c1ccccc1)CC2 | 696 s
83 | COc1cccc(C(=O)N2CCC3(CC2)NC(=O)c2cc(F)ccc2N3C)c1 | 762 s
84 | Cn1nc(C(=O)N2CCC(Nc3cccnc3)C2)c2ccccc21 (stereo not given) | 781 s
85 | Cc1ccc(CNC(=O)C2(C)CCCN(C(=O)Nc3ccc(C)cc3C)C2)cc1 (stereo not given) | 947 s
86 | Cc1ncsc1CN1CCCC(c2nc(C(C)C)no2)CCNC(=O)CC1 (stereo not given) | 598 s
87 | Oc1cc(-n2cccn2)c(O)cc1-n1cccn1 | 868 s
88 | Cc1ccc(C)c(NC(=O)c2cn(-c3ncccc3-c3nc(C(C)C)no3)cn2)c1 | 1010 s
89 | CN1CCN(S(=O)(=O)c2ccc(Cl)c3ccccc23)CC1 | 580 s
90 | O=C(COc1ccc(F)cc1)N1CC(n2cc(COCC3CC3)nn2)C1 | 736 s
